For the assay, the target named is T1, GST-VP8* of P[16] murine RVA EMcN (Murine rotavirus EMcN, UniProt Q6WVQ1).
T1 construct: gene VP4; VP8* core aa 46-231, cut from VP4 precursor; N-terminal GST fusion kept; E. coli BL21
The assay is described as follows: CFG glycan array, GST-VP8* detected with fluorescent anti-GST antibody (RFU). The assay is classed as binding. To be noted: immobilised glycan.

As for `OC[C@H]1O[C@H](O[C@H]2[C@@H](O)[C@@H](CO)O[C@@H](O[C@H]3[C@H](O)[C@@H](O)C(O)O[C@@H]3CO)[C@@H]2O)[C@H](O)[C@@H](O)[C@H]1O` (stereo partly shown) [compound 117, Galα1-3Galβ1-4Glc], the “CFG glycan array, GST-VP8* detected with fluorescent anti-GST antibody (RFU)” value is on record as “Four strains exhibited strongest binding signals to the αGal containing glycans”.

The record behind these values is paper PMC7473324, “Histo-blood group antigens as divergent factors of groups A and C rotaviruses circulating in humans and different animal species” (Emerging Microbes & Infections, 2020).
